Test results reported in patent publication US7947662B2, “Folates, compositions and uses thereof” (priority 2008, dated 2011).
Read-outs that look alike come from different tables or passages of the source.

Columns and labels:
[1] = Stability of the powder in sealed aluminium foil bag, purity and titre by HPLC; format: physicochemical; conditions: protected from light; for Titre, starting values: HPLC titre of acid moiety; for Titre, starting values / Purity, starting values: start; for Purity, starting values: airtight container
Method: The stability of the compounds listed in the following table, under powder form and in sealed aluminium foil bag, was tested, keeping the samples in airtight container, protected from light and measuring the purity and the titre thereof after 6 and 12 months.
In particular, the stability of the acid moiety was observed by HPLC, detecting the purity and titre thereof.

[2] = mice, one capsule
Method: The biological tests were carried out on 12 mice weighing 200-300 g, administering to each of them one 3 mg capsule containing the dose of the selected compound, as below reported, dispersed in lactose.
The haematic values of the selected compound were subsequently evaluated after regular time intervals (0, 30, 60, 95, 120 min.).

[3] = cited from earlier work
[4] = background statement, cited from earlier work
[5] = after nine months, U.S. Pat. No. 5,817,659 (Example 1)
[6] = after twelve months, U.S. Pat. No. 6,271,374 (Example 1)

Row | Titre, starting values [1] [%] | Purity, starting values [1] | Purity after 6 months [1] | Titre after 6 months [1] [%] | Purity after 12 months [1] | Titre after 12 months [1] [%] | haematic value ([2]; time 0.5 h) [nmol/L] | haematic value ([2]; time 1.5 h) [nmol/L] | haematic value ([2]; time 2 h) [nmol/L] | Structure (SMILES) | titre decrease [3, 5] | further results
1 | 55.5 | 99.1 | 98.9 | 55.2 | 98.7 | 55.3 | – | – | – | CN1c2c(nc(N)[nH]c2=O)NCC1CNc1ccc(C(=O)NC(CCC(=O)O)C(=O)O)cc1.NC1C(O)OC(CO)C(O)C1O.NC1C(O)OC(CO)C(O)C1O (mixture of isomers) [D-GAL (6R,S)-5-MTHF, D-galactosamine 5-methyl-(6R,S)-tetrahydrofolate] | – | –
2 | 55.2 | 99.1 | 98.9 | 55 | 99.0 | 54.8 | 83.2 ± 4.9 | 83.8 ± 4.3 | 82.8 ± 4.3 | CN1c2c(nc(N)[nH]c2=O)NCC1CNc1ccc(C(=O)NC(CCC(=O)O)C(=O)O)cc1.NC1C(O)OC(CO)C(O)C1O.NC1C(O)OC(CO)C(O)C1O (mixture of isomers) [D-GLU 5-MTHF, D-glucosamine 5-methyl-(6R,S)-tetrahydrofolate] | – | –
3 | – | – | – | – | – | – | – | – | – | CN1c2c([nH]c(N)nc2=O)NC[C@@H]1CNc1ccc(C(=O)N[C@@H](CCC(=O)[O-])C(=O)[O-])cc1.[Ca+2] [5-methyl-(6S)-tetrahydrofolic acid calcium salts] | – | titre decrease ([3]; after twelve months, U.S. Pat. No. 6,441,168 (Example 1)): about 1%
4 | – | – | – | – | – | – | – | – | – | Nc1nc(=O)c2c([nH]1)NC[C@@H](CNc1ccc(C(=O)N[C@@H](CCC(=O)[O-])C(=O)[O-])cc1)N2.[Ca+2] [(6R)-tetrahydrofolic acid calcium salts] | about 2% | titre decrease [3, 6]: about 7%
5 | – | – | – | – | – | – | – | – | – | Nc1nc(=O)c2c([nH]1)NCC(CNc1ccc(C(=O)N[C@@H](CCC(=O)[O-])C(=O)[O-])cc1)N2.[Ca+2] (stereo partly drawn) [(6R,S)-tetrahydrofolic acid calcium salts] | about 2% | –
6 | – | – | – | – | – | – | – | – | – | Nc1nc(=O)c2c([nH]1)NC[C@H](CNc1ccc(C(=O)N[C@@H](CCC(=O)[O-])C(=O)[O-])cc1)N2.[Ca+2] [(6S)-tetrahydrofolic acid calcium salts] | about 2% | titre decrease [3, 6]: about 7%
7 | 54.8 | 99.2 | 99.1 | 54.5 | 98.7 | 54.2 | – | – | – | N[C@H]1C(O)O[C@H](CO)[C@H](O)[C@@H]1O.N[C@H]1C(O)O[C@H](CO)[C@H](O)[C@@H]1O.Nc1nc2ncc(CNc3ccc(C(=O)N[C@@H](CCC(=O)O)C(=O)O)cc3)nc2c(=O)[nH]1 [D-GAL folate, D-galactosamine L-folate] | – | –
8 | 55.7 | 99.3 | 99.0 | 55.4 | 98.5 | 55.1 | 83.7 ± 5.2 | 83.7 ± 4.3 | 83 ± 4.3 | CN1c2c(nc(N)[nH]c2=O)NCC1CNc1ccc(C(=O)NC(CCC(=O)O)C(=O)O)cc1.NC1C(O)OC(CO)C(O)C1O.NC1C(O)OC(CO)C(O)C1O [D-GLU (6S)-5-MTHF, D-glucosamine 5-methyl-(6S)-tetrahydrofolate] | – | haematic value ([2]; time 1 h): 86.1 ± 5.0 nmol/L
9 | 54.6 | 99.1 | 98.8 | 54.3 | 98.7 | 54 | 75.3 ± 4.3 | 78.4 ± 4.3 | 76.8 ± 4.3 | N[C@H]1C(O)O[C@H](CO)[C@@H](O)[C@@H]1O.N[C@H]1C(O)O[C@H](CO)[C@@H](O)[C@@H]1O.Nc1nc2ncc(CNc3ccc(C(=O)N[C@@H](CCC(=O)O)C(=O)O)cc3)nc2c(=O)[nH]1 [D-GLU folate, D-glucosamine L-folate] | – | haematic value ([2]; time 1 h): 79.8 ± 5.2 nmol/L
10 | – | – | – | – | – | – | – | – | – | Nc1nc2ncc(CNc3ccc(C(=O)N[C@@H](CCC(=O)O)C(=O)O)cc3)nc2c(=O)[nH]1 [Folic acid, N-[4-[[(2-amino-1,4-dihydro-4-oxo-6-pteridinyl)methyl]amino]benzoyl]-L-glutamic acid] | – | solubility in alcohol ([4]; alcohol): insoluble; solubility in dilute solutions of alkali hydroxides and carbonates [4]: readily soluble; solubility in water ([4]; water): very slightly soluble
